# Laboratory results: patent US10472341B2, “Bicyclic tetrahydrothiazepine derivatives useful for the treatment of neoplastic and/or infectious diseases” (APEIRON BIOLOGICS AG, priority 2015, dated 2019)
# Where a name gives a salt, the structure may show the parent alone.
# Tests used:
# [1] = system: CD8-positive immune cells & M21 melanoma cells; assay: CD8-positive immune cells alone or in co-culture with M21 melanoma cells: IFN-gamma, IL-2, granzyme; type: cell-based, human
# Method: Isolated PBMCs, NK cells or CD8 positive cells were plated in Xvivo medium at 1.5*10^5 cells per in 96 well culture plates in the presence of 0.3*10^4 tumor cells where indicated. Cytokine secretion was determined by ELISA, immune cell activation (using Beckman-Coulter Abs CD25-PC5, CD69-PC7), cell viability and numbers by flow cytometry (Beckman-Coulter FC500 or Gallios) using 7-AAD exclusion as criterion for living cells. CD8-positive immune cells were isolated from PBMCs and were incubated with and without compound example 67, either alone or in co-culture with M21 melanoma cells.
# [2] = system: TCR-mediated activation of CD4 and CD8 cells; assay: Anti-CD3 PD model in mice: CD69 on splenic T-cells, plasma cytokines; type: in vivo, mouse; conditions: for CD4+ / CD8+ / CD69+ / CD69+ in CD4+ / CD69+ in CD8+: spleen flowcytometry; for CD4+ / CD8+ / CD69+ / CD69+ in CD4+ / CD69+ in CD8+ / IFN-γ / IL-2 / IL-6 / IL-10 / TNF-α: t=4.0 h; for IFN-γ / IL-2 / IL-6 / IL-10 / TNF-α: terminal plasma
# Text: Detection of antigen-specific T cell activation and proliferation in vivo is technically challenging since it requires the development and validation of research reagents to detect low-frequency T cells specific for a cognate antigen and also the establishment of specific measurement procedure for following cellular activation and/or proliferation in blood or secondary lymphoid organs. As a surrogate model for the determination of polyclonal T-cell activation in mice, a pharmacological system was designed and employed where adult […] mice were injected with anti-CD3 antibody to elicit TCR triggering and responses of a broad population of peripheral T-cells. To quantitatively determine T-cell responses, systemic IL-2, TNF-alpha and IFN-gamma levels were measured in blood serum as well as the expression of the early activation marker CD69 on splenic CD4 or CD8 T-cells […] after treatment.
# It was investigated whether the oral application of compound affected the low-level of activation of a major subset of splenic T-cells by injection of anti-CD3 antibody as exemplified by increased serum levels of IL-2, IFN-gamma and TNF-alpha vis-à-vis untreated mice as well as an increase of CD69-expressing splenic T-cells from 2-10% to 15-20%.
# […] Compound example 1 was dosed twice orally as suspension (0.5% methylcellulose in water) at t=−1.0 h and t=1.0 h. • 3. Mice were terminated at t=4.0 h and their spleens and plasma harvested for flow cytometry and cytokine analysis respectively. • 4. Cytokine concentrations in terminal plasma samples were determined with MSD kits according to manufacturer's instructions.
# CD8 T cells = assay: CD69 expression on aCD3/aCD28 stimulated isolated human CD8 T cells (flow cytometry); type: cell-based; conditions: T-cell, 24 h after TCR stimulation, read-out: Activity Class CD69 (CD8)
# In short: (§1)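 Isolated CD4 and CD8 T cells plated at 80000 cells per well in Xvivo medium and stimulated with anti-CD3/28 mAbs in presence of compound. CD69 expression measured by flow cytometry 24 h after TCR stimulation.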
# CD4 T cells = assay: CD69 expression on aCD3/aCD28 stimulated isolated human CD4 T cells (flow cytometry); type: cell-based; conditions: 24 h after TCR stimulation, read-out: Activity Class CD69 (CD4)
# In short: as §1
# [3] = 0.03 μM, CD8 only (no tumor cells)
# [4] = 0.10 μM, CD8 only (no tumor cells)
# [5] = 0.30 μM, CD8 only (no tumor cells)
# [6] = 1 μM, CD8 only (no tumor cells)
# [7] = 3 μM, CD8 only (no tumor cells)
# [8] = 10 μM, CD8 only (no tumor cells)
compound,measurement,setting,value
"CCCCNC(=O)c1ccc2c(c1)N(Cc1ccc(OC(F)(F)F)cc1)C(=O)[C@@H](N)CS2(=O)=O.Cl [Example 67, (3R)-3-amino-N-butyl-1,1,4-trioxo-5-{[4-(trifluoromethoxy)phenyl]methyl}-2,3,4,5-tetrahydro-1λ^6,5-benzothiazepine-7-carboxamide hydrochloride]",Granzyme [ng/ml] avg,"[1]; 0.03 μM, CD8 cells & M21",0.10 ng/mL
same,IFN-gamma [ng/ml] avg,"[1]; 0.03 μM, CD8 cells & M21",0.06 ng/mL
same,IL-2 [ng/ml] avg,"[1]; 0.03 μM, CD8 cells & M21",1.32 ng/mL
same,Granzyme [ng/ml] avg,[1]; [3],0.01 ng/mL
same,IFN-gamma [ng/ml] avg,[1]; [3],Below
same,IL-2 [ng/ml] avg,[1]; [3],Below
same,Granzyme [ng/ml] avg,"[1]; 0.10 μM, CD8 cells & M21",0.12 ng/mL
same,IFN-gamma [ng/ml] avg,"[1]; 0.10 μM, CD8 cells & M21",0.15 ng/mL
same,IL-2 [ng/ml] avg,"[1]; 0.10 μM, CD8 cells & M21",2.13 ng/mL
same,Granzyme [ng/ml] avg,[1]; [4],0.01 ng/mL
same,IFN-gamma [ng/ml] avg,[1]; [4],Below
same,IL-2 [ng/ml] avg,[1]; [4],Below
same,Granzyme [ng/ml] avg,"[1]; 0.30 μM, CD8 cells & M21",0.18 ng/mL
same,IFN-gamma [ng/ml] avg,"[1]; 0.30 μM, CD8 cells & M21",0.20 ng/mL
same,IL-2 [ng/ml] avg,"[1]; 0.30 μM, CD8 cells & M21",2.75 ng/mL
same,Granzyme [ng/ml] avg,[1]; [5],0.01 ng/mL
same,IFN-gamma [ng/ml] avg,[1]; [5],Below
same,IL-2 [ng/ml] avg,[1]; [5],Below
same,Granzyme [ng/ml] avg,"[1]; 1 μM, CD8 cells & M21",0.34 ng/mL
same,IFN-gamma [ng/ml] avg,"[1]; 1 μM, CD8 cells & M21",0.40 ng/mL
same,IL-2 [ng/ml] avg,"[1]; 1 μM, CD8 cells & M21",3.38 ng/mL
same,Granzyme [ng/ml] avg,[1]; [6],0.02 ng/mL
same,IFN-gamma [ng/ml] avg,[1]; [6],Below
same,IL-2 [ng/ml] avg,[1]; [6],Below
same,Granzyme [ng/ml] avg,"[1]; 3 μM, CD8 cells & M21",0.43 ng/mL
same,IFN-gamma [ng/ml] avg,"[1]; 3 μM, CD8 cells & M21",0.54 ng/mL
same,IL-2 [ng/ml] avg,"[1]; 3 μM, CD8 cells & M21",3.44 ng/mL
same,Granzyme [ng/ml] avg,[1]; [7],0.01 ng/mL
same,IFN-gamma [ng/ml] avg,[1]; [7],Below
same,IL-2 [ng/ml] avg,[1]; [7],Below
same,Granzyme [ng/ml] avg,"[1]; 10 μM, CD8 cells & M21",0.37 ng/mL
same,IFN-gamma [ng/ml] avg,"[1]; 10 μM, CD8 cells & M21",0.68 ng/mL
same,IL-2 [ng/ml] avg,"[1]; 10 μM, CD8 cells & M21",3.26 ng/mL
same,Granzyme [ng/ml] avg,[1]; [8],0.02 ng/mL
same,IFN-gamma [ng/ml] avg,[1]; [8],Below
same,IL-2 [ng/ml] avg,[1]; [8],Below
same,tumor-cell contact mediated release of granzyme,[1]; CD8-positive immune cells in co-culture with M21,enhanced
same,production of IL-2 and IFN-gamma,[1]; CD8-positive immune cells in co-culture with M21 melanoma cells,enhanced production of both cytokines specifically upon tumor cell contact
same,enhancement of IL-2 and IFN-gamma production,[1]; CD8-positive immune cells in the absence of tumor cells,such effect was not detected in the absence of tumor cells
"N[C@H]1CS(=O)(=O)c2cc(F)c(C(=O)NC3CC3(F)F)cc2N(Cc2ccc(Cl)cc2)C1=O (stereo partly drawn) [Example 1, (3R)-3-amino-5-[(4-chlorophenyl)methyl]-N-(2,2-difluorocyclopropyl)-8-fluoro-1,1,4-trioxo-2,3,4,5-tetrahydro-1λ^6,5-benzothiazepine-7-carboxamide hydrochloride]",TCR-mediated activation of CD4 and CD8 cells in vivo,"[2]; mice, anti-CD3 i.p., compound oral, five hours",is able to substantially enhance TCR-mediated activation of CD4 and CD8 cells in vivo
same,CD4+,[2]; 25 mg/kg dosed twice orally,22.95%
same,CD8+,[2]; 25 mg/kg dosed twice orally,16.33%
same,CD69+,[2]; 25 mg/kg dosed twice orally,12.65%
same,CD69+ in CD4+,[2]; 25 mg/kg dosed twice orally,26.75%
same,CD69+ in CD8+,[2]; 25 mg/kg dosed twice orally,32.40%
same,CD4+,[2]; 50 mg/kg dosed twice orally,22.86%
same,CD8+,[2]; 50 mg/kg dosed twice orally,16.42%
same,CD69+,[2]; 50 mg/kg dosed twice orally,17.06%
same,CD69+ in CD4+,[2]; 50 mg/kg dosed twice orally,32.14%
same,CD69+ in CD8+,[2]; 50 mg/kg dosed twice orally,46.44%
same,CD4+,[2]; 100 mg/kg dosed twice orally,23.18%
same,CD8+,[2]; 100 mg/kg dosed twice orally,16.70%
same,CD69+,[2]; 100 mg/kg dosed twice orally,28.58%
same,CD69+ in CD4+,[2]; 100 mg/kg dosed twice orally,47.50%
same,CD69+ in CD8+,[2]; 100 mg/kg dosed twice orally,63.96%
same,IFN-γ,[2]; 25 mg/kg dosed twice orally,5.26 pg/mL
same,IL-2,[2]; 25 mg/kg dosed twice orally,391.33 pg/mL
same,IL-6,[2]; 25 mg/kg dosed twice orally,461.65 pg/mL
same,IL-10,[2]; 25 mg/kg dosed twice orally,39.88 pg/mL
same,TNF-α,[2]; 25 mg/kg dosed twice orally,46.78 pg/mL
same,IFN-γ,[2]; 50 mg/kg dosed twice orally,12.99 pg/mL
same,IL-2,[2]; 50 mg/kg dosed twice orally,849.50 pg/mL
same,IL-6,[2]; 50 mg/kg dosed twice orally,1186.80 pg/mL
same,IL-10,[2]; 50 mg/kg dosed twice orally,50.88 pg/mL
same,TNF-α,[2]; 50 mg/kg dosed twice orally,97.78 pg/mL
same,IFN-γ,[2]; 100 mg/kg dosed twice orally,50.77 pg/mL
same,IL-2,[2]; 100 mg/kg dosed twice orally,1413.82 pg/mL
same,IL-6,[2]; 100 mg/kg dosed twice orally,2185.05 pg/mL
same,IL-10,[2]; 100 mg/kg dosed twice orally,68.38 pg/mL
same,TNF-α,[2]; 100 mg/kg dosed twice orally,170.92 pg/mL
"Cl.N[C@H]1CS(=O)(=O)c2cc(F)c(C(=O)NCCCC(F)(F)F)cc2N(Cc2ccc(Cl)cc2)C1=O [Example 70, (3R)-3-amino-5-[(4-chlorophenyl)methyl]-8-fluoro-1,1,4-trioxo-N-(4,4,4-trifluoro-butyl)-2,3,4,5-tetrahydro-1λ^6,5-benzothiazepine-7-carboxamide hydrochloride]",EC50,CD8 T cells,< 1580 nM
same,EC50,CD4 T cells,< 1580 nM
